The text below walks through data of PubChem BioAssay AID248 (DTP/NCI, 2004).

Toxic doses and inconclusive results are not listed.

For the assay, the system named is L1210 leukemia ip in BDF1 mice, survival T/C. In words: NCI In Vivo Anticancer Drug Screen. Data for tumor model L1210 Leukemia (intraperitoneal) in B6D2F1 (BDF1) mice. The following applies: endpoint: mean survival time, higher = longer survival. In short, it runs like this: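 Ratio derived from survival: compound-dosed mice over vehicle-dosed mice, all bearing a transplantable tumor.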

[1] abbreviates: dose: 100.0 mg/kg/injection, schedule: Q01DX009 (ip), vehicle: Klucel (hydroxypropylcellulose) (HPC).
[2] abbreviates: dose: 200.0 mg/kg/injection, schedule: Q01DX009 (ip), vehicle: Klucel (hydroxypropylcellulose) (HPC).
[3] abbreviates: dose: 400.0 mg/kg/injection, schedule: Q01DX009 (ip), vehicle: Klucel (hydroxypropylcellulose) (HPC).
[4] abbreviates: dose: 100.0 mg/kg/injection, schedule: Q01DX001 (ip), vehicle: saline.
[5] abbreviates: dose: 200.0 mg/kg/injection, schedule: Q01DX001 (ip), vehicle: saline.
Where [6] appears, read: dose: 400.0 mg/kg/injection, schedule: Q01DX001 (ip), vehicle: saline.
Where [7] appears, read: dose: 100.0 mg/kg/injection, schedule: Q04DX003 (ip), vehicle: Klucel (hydroxypropylcellulose) (HPC).
The mark [8] stands for this setting: dose: 200.0 mg/kg/injection, schedule: Q04DX003 (ip), vehicle: Klucel (hydroxypropylcellulose) (HPC).
[9] abbreviates: dose: 400.0 mg/kg/injection, schedule: Q04DX003 (ip), vehicle: Klucel (hydroxypropylcellulose) (HPC).
The mark [10] stands for this setting: dose: 100.0 mg/kg/injection, schedule: Q04DX003 (ip), vehicle: saline with Tween-80.
Setting [11] is: dose: 200.0 mg/kg/injection, schedule: Q04DX003 (ip), vehicle: saline with Tween-80.
[12] abbreviates: dose: 400.0 mg/kg/injection, schedule: Q04DX003 (ip), vehicle: saline with Tween-80.
[13] abbreviates: dose: 100.0 mg/kg/injection, schedule: Q01DX009 (ip), vehicle: saline with Tween-80.
The mark [14] stands for this setting: dose: 200.0 mg/kg/injection, schedule: Q01DX009 (ip), vehicle: saline with Tween-80.
[15] abbreviates: dose: 400.0 mg/kg/injection, schedule: Q01DX009 (ip), vehicle: saline with Tween-80.

As for `O=NN(CCCl)C(=O)NC1CCCCCCCCCCC1`, the T/C is 114 % of control (dose: 2.5 mg/kg/injection, schedule: Q01DX001 (ip), vehicle: carboxymethylcellulose (CMC)); 120 % of control (dose: 5.0 mg/kg/injection, schedule: Q01DX001 (ip), vehicle: carboxymethylcellulose (CMC)); 123 % of control (dose: 8.0 mg/kg/injection, schedule: Q01DX001 (ip), vehicle: carboxymethylcellulose (CMC)); 121 % of control (dose: 12.0 mg/kg/injection, schedule: Q01DX001 (ip), vehicle: carboxymethylcellulose (CMC)); 166 % of control (dose: 187.0 mg/kg/injection, schedule: Q01DX001 (ip), vehicle: carboxymethylcellulose (CMC)); 153 % of control (dose: 250.0 mg/kg/injection, schedule: Q01DX001 (ip), vehicle: carboxymethylcellulose (CMC)). The T/C was 160 % of control (dose: 375.0 mg/kg/injection, schedule: Q01DX001 (ip), vehicle: carboxymethylcellulose (CMC)); 174 % of control (dose: 500.0 mg/kg/injection, schedule: Q01DX001 (ip), vehicle: carboxymethylcellulose (CMC)); 172 % of control (dose: 555.0 mg/kg/injection, schedule: Q01DX001 (ip), vehicle: other); 155 % of control (dose: 596.0 mg/kg/injection, schedule: Q01DX001 (ip), vehicle: other); 233 % of control (dose: 750.0 mg/kg/injection, schedule: Q01DX001 (ip), vehicle: carboxymethylcellulose (CMC)); 221 % of control (dose: 838.0 mg/kg/injection, schedule: Q01DX001 (ip), vehicle: other). For the same molecule, the T/C was 247 % of control (dose: 1000.0 mg/kg/injection, schedule: Q01DX001 (ip), vehicle: carboxymethylcellulose (CMC)); 185 % of control (dose: 1192.0 mg/kg/injection, schedule: Q01DX001 (ip), vehicle: other); 274 % of control (dose: 1250.0 mg/kg/injection, schedule: Q01DX001 (ip), vehicle: other); 167 % of control (dose: 1500.0 mg/kg/injection, schedule: Q01DX001 (ip), vehicle: other); 261 % of control (dose: 1875.0 mg/kg/injection, schedule: Q01DX001 (ip), vehicle: other); 91 % of control (dose: 2000.0 mg/kg/injection, schedule: Q01DX001 (ip), vehicle: other). For the same molecule, the T/C (dose: 2384.0 mg/kg/injection, schedule: Q01DX001 (ip), vehicle: other) is 178 % of control.
In the case of `O=C1OC(c2cccc3c(F)cccc23)c2ccccc21` (stereo unspecified), the T/C under setting [1] is 96 % of control, the T/C under setting [2] was 95 % of control and the T/C under setting [3] was 93 % of control.
As to `CC(=O)CC(C)(C)C`, the T/C was 102 % of control under setting [4], 98 % of control under setting [5] and 91 % of control under setting [6].
For the molecule `Cc1[nH]c2cc(O)c(O)c(C)c2c1C`, the T/C under setting [4] was 96 % of control.
As for `CC(C)(C)C(=O)CC(=O)C(C)(C)C.CC(C)(C)C(=O)CC(=O)C(C)(C)C.CC(C)(C)C(=O)CC(=O)C(C)(C)C.CC(C)(C)C(=O)CC(=O)C(C)(C)C.[Zr]`, the T/C by setting is: under setting [1], 96 % of control; under setting [7], 94 % of control; under setting [2], 97 % of control; under setting [8], 89 % of control; under setting [3], 96 % of control; under setting [9], 101 % of control.
`CN(C)c1ccc(/C=N/Nc2ncnc3nc[nH]c23)cc1`: the T/C runs as follows: under setting [10], 98 % of control; under setting [11], 96 % of control; under setting [12], 91 % of control.
Consider `CS/C(N)=N\[N+](=O)[O-]`, for which the T/C reads like this: (dose: 50.0 mg/kg/injection, schedule: Q01DX009 (ip), vehicle: Klucel (hydroxypropylcellulose) (HPC)) 89 % of control; under setting [1], 110 % of control; under setting [2], 114 % of control.
`CC1OC(OC2CCC3(C)C(CCC4C3CC(O)C3(C)C(C5=CC(=O)OC5)CCC43O)C2)CC(O)C1OC1CC(O)C(OC2CC(O)C(OC3OC(CO)C(O)C(O)C3O)C(C)O2)C(C)O1` (stereo unspecified): the T/C was 96 % of control (dose: 4.0 mg/kg/injection, schedule: Q01DX015 (sc), vehicle: steriod suspending solution); 104 % of control (dose: 8.0 mg/kg/injection, schedule: Q01DX015 (sc), vehicle: steriod suspending solution); 102 % of control (dose: 16.0 mg/kg/injection, schedule: Q01DX015 (sc), vehicle: steriod suspending solution); 98 % of control (dose: 32.0 mg/kg/injection, schedule: Q01DX015 (sc), vehicle: steriod suspending solution); 100 % of control under setting [4]; 101 % of control under setting [5]. Further, under setting [6], the T/C is 100 % of control.
On to `O=Cc1cc([N+](=O)[O-])cc(CCl)c1O`, for which, under setting [1], the T/C is 90 % of control.
On to `O=S(=O)(O)CNc1ccccc1`, for which the T/C runs as follows: (dose: 100.0 mg/kg/injection, schedule: Q01DX009 (ip), vehicle: saline) 93 % of control; (dose: 200.0 mg/kg/injection, schedule: Q01DX009 (ip), vehicle: saline) 93 % of control; (dose: 400.0 mg/kg/injection, schedule: Q01DX009 (ip), vehicle: saline) 95 % of control.
Turning to `O=C(COc1ccccc1)NCc1ccccc1`, the T/C reads like this: (dose: 100.0 mg/kg/injection, schedule: Q04DX003 (ip), vehicle: saline) 94 % of control; (dose: 200.0 mg/kg/injection, schedule: Q04DX003 (ip), vehicle: saline) 92 % of control; (dose: 400.0 mg/kg/injection, schedule: Q04DX003 (ip), vehicle: saline) 92 % of control.
Regarding `O=S(=O)(NC1CCCC2C=CC=CC21)c1ccccc1` (stereo unspecified), the T/C is 96 % of control under setting [13]; 93 % of control under setting [10]; 102 % of control under setting [14]; 92 % of control under setting [11]; 88 % of control under setting [15]; 95 % of control under setting [12].
For the molecule `Cc1ccc(C)c(CCCC(=O)O)c1`, the T/C by setting is: under setting [13], 96 % of control; under setting [7], 105 % of control; under setting [14], 93 % of control; under setting [8], 94 % of control; under setting [15], 104 % of control; under setting [9], 100 % of control.
For `CN(C)c1ccc(CNc2cccc(Cl)c2Cl)cc1`, the T/C under setting [7] was 94 % of control, the T/C under setting [8] is 96 % of control and the T/C under setting [9] is 97 % of control.
With `O=C1OCCC12CCCCC21OCCO1` (stereo unspecified), the T/C reads like this: under setting [4], 101 % of control; under setting [5], 104 % of control; under setting [6], 98 % of control.
Turning to `O=C(c1ccccc1)c1nc2ccccc2[nH]1`, the T/C is, setting by setting: (dose: 100.0 mg/kg/injection, schedule: Q04DX002 (ip), vehicle: Klucel (hydroxypropylcellulose) (HPC)) 108 % of control; (dose: 200.0 mg/kg/injection, schedule: Q04DX002 (ip), vehicle: Klucel (hydroxypropylcellulose) (HPC)) 101 % of control; (dose: 400.0 mg/kg/injection, schedule: Q04DX002 (ip), vehicle: Klucel (hydroxypropylcellulose) (HPC)) 104 % of control.
For the molecule `CC(C)=C1CCC(C)C/C1=N\N=C(N)N` (stereo unspecified), the T/C by setting is: (dose: 15.0 mg/kg/injection, schedule: Q01DX Z (ip), vehicle: carboxymethylcellulose (CMC)) 100 % of control; (dose: 30.0 mg/kg/injection, schedule: Q01DX Z (ip), vehicle: carboxymethylcellulose (CMC)) 106 % of control; (dose: 60.0 mg/kg/injection, schedule: Q01DX Z (ip), vehicle: carboxymethylcellulose (CMC)) 89 % of control; (dose: 120.0 mg/kg/injection, schedule: Q01DX Z (oral), vehicle: carboxymethylcellulose (CMC)) 97 % of control; (dose: 240.0 mg/kg/injection, schedule: Q01DX Z (oral), vehicle: carboxymethylcellulose (CMC)) 97 % of control; (dose: 480.0 mg/kg/injection, schedule: Q01DX Z (oral), vehicle: carboxymethylcellulose (CMC)) 101 % of control.
Regarding `CN=C(c1ccc(NC(=O)c2ccc(C(=O)Nc3ccc(C(=NC)N4CCCC4)cc3)cc2)cc1)N1CCCC1`, the T/C was 96 % of control (dose: 0.5 mg/kg/injection, schedule: Q01DX Z (ip), vehicle: water) and 96 % of control (dose: 1.0 mg/kg/injection, schedule: Q01DX Z (ip), vehicle: water).
